Results taken from patent US12507721B2, “Ready-to-use parenteral nutrition formulation” (BAXTER INTERNATIONAL INC., priority 2021, dated 2025).
Marks after values point to notes of the source that are not given here.

Columns and labels:
Type in all cases: physicochemical
[1] = Vitamin stability in 35% glucose solution during sterilization and storage; settings: 35% glucose solution; for T1M40° C. concentration: 1 month at 40° C.; for T3M40° C. concentration: 3 months at 40° C.; for T6M40° C. concentration: 6 months at 40° C., B12 value (*) is the sum of cyanocobalamin and hydroxocobalamin
Description: For testing the stability of vitamin B12 in formulation as they are typically used in parenteral nutrition, a 35% glucose solution, a 14.2% amino acid formulation such as found, for example, in Olimel N9E (Baxter), and a 20% lipid emulsion such as found in Clinoleic 20% (Baxter) were supplemented with different vitamin combinations which always included vitamin B12. KCl was added into the glucose solution to understand if it has an effect on the stability of vitamin B12. Vitamin B1 was introduced as thiamin HCl. Ascorbyl palmitate was added to the lipid emulsion formulation as a stabilizing agent due to its antioxidant properties. In addition, two separate micellar solutions (“Vit A” and “Vit B”, see Table 9) comprising certain vitamins to be assessed with regard to degradation (B3, B6, B8, B9, B12, C) but formulated with different excipients as micellization agents were tested for vitamin B12 stability. Vit A consisted of a solution of mixed micelles with ascorbyl palmitate as a potential stability enhancer. Vit B was formulated with a mix of polysorbates, PEG and sorbitol to form micelles. The micellar solutions were prepared by mixing, under high speed, a solution composed of glycocholic acid and lecithins dissolved in water. In case of Vit B, the glycocholic acid and lecithin were replaced by PEG and polysorbate. All formulations were provided in standard flexible containers and overpouched with an aluminum overpouch for subsequent sterilization. For an overview over formulations and conditions see Table 9.
All samples were submitted to two different sterilization technologies. Steam sterilization targeting a F0=8 min was used for large volumes (400/800 ml, Cycle 2) and for small volumes (25/50 ml, Cycle 1) as lined out in Table 9 above. The same samples were sterilized by water spray sterilization with a serial tower continuous sterilization equipment with two different exposure times (Cycles 3 (25 min.) and 4 (19 min.)).
The vitamin recovery was then compared between the different sterilization cycles and formulations to understand the impact of the formulation and the sterilization technology used on their respective short- and long-term stability. Therefore, after sterilization, the samples were stored at 40° C./25% RH for 6 months to evaluate the recovery of vitamin B12 at T1M, T3M and T6M. Besides, backup samples were stored at 5° C. Finally, some samples were also stored at 25° C./40% RH to provide for real time stability data.

[2] = Vitamin B12 stability in dedicated formulations (Batches 1 to 4); settings: aqueous formulation, optimized conditions (oxygen content, pH, sterilization method)
Description: Table 16 provides for the various batches which were prepared for testing the stability of vitamin B12 in each setting.
For Batches 1 to 3, concentrated emulsions (40%) were diluted with a factor of 8. The vitamin bulk was used to dilute the emulsion from 40% to 5%. The pH was adjusted at 5.9 with a citrate buffer for Batch 1 and a phosphate buffer for Batch 2. An adjustment to pH 6.5 was performed for Batch 3 with HCl. The final volume was provided by adding Milli-Q water. In case of Batches 2 and 3, EDTA and PVP K17 were added before filling up to the final volume. The emulsions were filtered with a 4.5 μm filter before filling. Flushing of the solutions using N2 was performed before starting the filling of each batch. The Batches were manufactured under exclusion of light and oxygen. The dissolved oxygen was measured at the beginning of the filling to ensure it remains <1.0 ppm. The headspace volume was set as small as possible (≤10 mL) and the filling volume limits was 100 mL per monobag, ±2 mL. To avoid any risk of vitamin degradation, an aluminum overpouch was used to protect each monobag. An oxygen absorber was placed between primary bag and overpouch. Seals were inspected before sterilization rack loading. Four samples per Batch were kept unsterilized for Batches 1 through 4. […]

[3] = Impact of pH on the stability of vitamin B12; settings: 6 months at 40° C.
[4] = 25 ml, Cycle 1 steam sterilization
[5] = 800 ml, Cycle 2 steam sterilization
[6] = 800 ml, Cycle 3 water spray sterilization
[7] = 800 ml, Cycle 4 water spray sterilization

## cobalamin [Batch B12]
[1]; 25 ml (Table 10A)
  Unsterilized T0 concentration: 0.0062 mg/L
[1]; [4]
  T1M40° C. concentration: 0.0045 mg/L
  T3M40° C. concentration: 0.0037 mg/L
[1]; 800 ml (Table 10B)
  Unsterilized T0 concentration: 0.0062 mg/L
[1]; 800 ml (Table 11A)
  Unsterilized T0 concentration: 0.006 mg/L
[1]; 800 ml (Table 11B)
  Unsterilized T0 concentration: 0.006 mg/L
[1]; [5]
  T1M40° C. concentration: 0.0040 mg/L
  T3M40° C. concentration: 0.0036 mg/L
[1]; 800 ml, Cycle 3 water spray sterilization, C0 = 25 minutes, after sterilization
  Cycle 3 T0 concentration: 0.0051 mg/L
[1]; [6]
  T3M40° C. concentration: 0.0041 mg/L
  T6M40° C. concentration: 0.0023* mg/L
[1]; 800 ml, Cycle 4 water spray sterilization, C0 = 19 minutes, after sterilization
  Cycle 4 T0 concentration: 0.0052 mg/L
[1]; [7]
  T3M40° C. concentration: 0.0041 mg/L
  T6M40° C. concentration: 0.0031* mg/L
[2]
  stability of vitamin B12 in Batch 4: remains stable up to T7M40 °C
[3]; Batch 1: 5% olive oil emulsion, pH 7.0, C0=40 min
  vitamin B12 (cyanocobalamin plus hydroxocobalamin) recovered: 53.8%
[3]; Batch 2: 5% olive oil emulsion, pH 5.9, C0=80 min
  vitamin B12 (cyanocobalamin plus hydroxocobalamin) recovered: 138%
